Values after ≈ are worked out from the molar mass of the structure shown.
Key:
[1] = Compound was evaluated for its stability in phosphate buffer in presence of EDTA at pH 7.4; type: physicochemical; conditions: phosphate buffer with EDTA
[2] = Solubility of compound in 50 mM sodium phosphate buffer at room temperature; type: physicochemical; conditions: read-out: S
[3] = Compound was evaluated for its stability in phosphate buffer in absence of EDTA at pH 7.4; type: physicochemical; conditions: phosphate buffer without EDTA
[4] = Half-life in phosphate buffer at pH 7 and 37 degree C; type: ADME

CC(=O)NC(C(=O)NC1OC(CO)C(O)C(O)C1O)C(C)(C)SN=O (stereo not drawn)
half-life [1]: 28.5 h | solubility [2]: > 1000 mg/mL | half-life [3]: 30.2 h

CC(=O)NC(C(=O)NC1C(O)OC(CO)C(O)C1O)C(C)(C)SN=O (stereo not drawn)
half-life [1]: 27.5 h | solubility [2]: > 1000 mg/mL | half-life [3]: 27.4 h

CC(=O)N[C@@H](C(=O)O)C(C)(C)SN=O
half-life [1]: 15.9 h | solubility [2]: 2 mg/mL (≈ 9.08 mM) | half-life [4]: 5 h | half-life [3]: 10.3 h

COC1OC(CNC(=O)C(NC(C)=O)C(C)(C)SN=O)C(O)C(O)C1O (stereo not drawn)
half-life [1]: 30.2 h | solubility [2]: > 1000 mg/mL | half-life [3]: 28.2 h

Source: ChEMBL document CHEMBL1151485, “Glyco-S-nitrosothiols, a novel class of no donor compounds” (Bioorg Med Chem Lett, 1996)
